Assay results as given in patent US8530646B2, “Oxazolidinone derivative having 7-membered hetero ring” (Research Foundation Itsuu Laboratory, priority 2007, dated 2013).

Assays:
Experiment in all cases: MIC determination by CLSI standard method (broth dilution, Mueller Hinton Broth)
Format in all cases: cell-based
Conditions in all cases: cation-adjusted Mueller Hinton Broth, inoculum about 5×10^5 CFU/mL, read-out: Minimal inhibitory concentration (MIC)
[1] = tested on: MRSA (methicillin-resistant Staphylococcus aureus)
Description: (§1) The compounds of the invention were tested for antimicrobial activity.
(§2) Minimal inhibitory concentration (MIC: μg/ml) against different strains of bacteria was determined according to the standard method recommended by CLSI (clinical and laboratory standards institute). Samples were prepared by dissolving a test compound solution into DMSO (1280 μg/mL), followed by two fold dilution with DMSO. The sample was added to a bacteria suspension at the concentration of 5%, and MIC was determined. Mueller Hinton Broth was adjusted for cation concentration and used as a culture media. The inoculation concentration was about 5×10^5 CFU/mL.

[2] = tested on: PRSP (penicillin resistant Streptococcus pneumoniae)
Description: as §1, §2

[3] = tested on: VISA (vancomycin-intermediate Staphylococcus aureus)
Description: as §1, §2

[4] = tested on: VRE (vancomycin resistance enterococcus)
Description: as §1, §2

Measured: MIC

CC(=S)NC[C@H]1CN(c2cc(F)c(N3CCON(C(=O)c4ccccc4O)CC3)c(F)c2)C(=O)O1 [Example B38]
≤ 1 µg/mL: [1] | [2] | [3] | [4]

COC(=S)NC[C@H]1CN(c2ccc(N3CCNN(C(=O)Cn4cc(Cl)cn4)CC3)c(F)c2)C(=O)O1 [Example A91]
≤ 1 µg/mL: [1] | [2] | [3] | [4]
